Measurements taken from BigSolDB 2.1.

Settings: in water

O=C(O)CCCCCCCC(=O)O
Settings	solubility (mole fraction)
280.15 K	5.94e-05
285.85 K	8.13e-05
291.85 K	0.000117
298.15 K	0.000171
307.85 K	0.000287
316.15 K	0.000336
325.75 K	0.000481
330.15 K	0.0007
334.65 K	0.000931
338.15 K	0.00128
344.15 K	0.00132
347.65 K	0.00153
353.05 K	0.00191
357.65 K	0.00173

CC(=O)CCC(=O)O
Settings	solubility (mole fraction)
280.15 K	0.18
283.15 K	0.214
287.65 K	0.278
293.95 K	0.374
298.15 K	0.448
303.25 K	0.519

O=C(O)CCCCCCC(=O)O
Settings	solubility (mole fraction)
280.15 K	9.55e-05
285.85 K	0.000128
291.85 K	0.000177
298.15 K	0.00025
305.65 K	0.000341
307.65 K	0.000369
313.15 K	0.00042
317.65 K	0.000485
323.35 K	0.000579
325.85 K	0.00064
334.65 K	0.00101
337.15 K	0.00117
343.25 K	0.00149
349.65 K	0.00212

O=C(O)COCC(=O)O
Settings	solubility (mole fraction)
278.25 K	0.0365
284.15 K	0.0469
288.75 K	0.0686
293.75 K	0.0748
296.65 K	0.0823
301.25 K	0.104
310.65 K	0.128
313.15 K	0.139
321.15 K	0.161
323.15 K	0.167
327.65 K	0.188
332.65 K	0.205
338.15 K	0.22
343.15 K	0.239
348.15 K	0.254
353.05 K	0.268
357.15 K	0.284
361.35 K	0.295
